{"source": "patent EP0868914B1", "about": "“USE OF A FLAVONOID-CONTAINING EXTRACT OF THE PLANT EUPHORBIA PROSTRATA IN THE MANUFACTURE OF A MEDICAMENT FOR THE TREATMENT OF AN ANORECTIC OR COLONIC DISEASE” (PANACEA BIOTEC LIMITED, priority 1997, dated 1998)", "key": {"[1]": {"tested_on": "croton oil-induced oedema in mice ears", "assay": "Croton oil ear test (oedema), topical", "settings": "for Activity Ratio on Molar basis: Indomethacin = 1; for ID50 / ID50 (column head printed: Activity Ratio): croton oil ear test in mice, Italian institute data"}, "[2]": {"tested_on": "granulocyte infiltration (MPO activity)", "assay": "Granulocyte infiltration (MPO activity) in the croton oil ear test", "assay_type": "in vivo, mice", "settings": "One unit = 1 nMol/min. of tetraguaiacol formed at 25°C"}, "[3]": {"tested_on": "Carrageenan-induced Pedal Oedema", "assay": "Carrageenan-induced pedal oedema in rats (oral extract, intraperitoneal indomethacin)", "assay_type": "in vivo", "settings": "for Oedema + SEM (%): intraperitoneal"}, "[4]": {"tested_on": "Carrageenan-induced Mice Paw Oedema", "assay": "Carrageenan-induced paw oedema in mice, topical application", "assay_type": "in vivo", "settings": "topical Indomethacin", "protocol": "The duration of action of topical preparation was determined by studying the effects of different concentrations of the drug on oedema over a period of 8 hr. As evident from the Table 3, the peak inhibition was observed after 3-4 hours of carrageenan injection begining at 2 hr for the extract at lower concentrations (0.5-2.0%) and 1 hr. at 4 % concentration."}, "[5]": {"settings": "1.26µMol, 6 hours after treatment"}, "[6]": {"settings": "1.26µMol, 18 hours after treatment"}, "[7]": {"settings": "1.26µMol, 30 hours after treatment"}}, "note": "Marks after values point to notes of the source that are not given here."}
{"molecule": "O=c1cc(-c2ccc(O)cc2)oc2cc(O[C@@H]3O[C@H](CO)[C@@H](O)[C@H](O)[C@H]3O)cc(O)c12", "note": "[Apigenin-7-glucoside]", "values": [{"measurement": "Activity Ratio on Molar basis", "setting": "[1]", "value": 0.32}, {"measurement": "ID50", "setting": "[1]", "value": 175, "unit": "µg/ear"}, {"measurement": "ID50 (column head printed: Activity Ratio)", "setting": "[1]", "value": 0.404, "unit": "µmol/ear"}]}
{"molecule": "C[C@]12CCC(=O)C=C1CC[C@@H]1[C@@H]2[C@@H](O)C[C@@]2(C)[C@H]1CC[C@]2(O)C(=O)CO", "note": "[Hydrocortisone]", "values": [{"measurement": "Effect on Oedema Development", "setting": "[1]; 0.41 µMol, 6 hours after treatment", "value": "0.5 ± 0.2", "unit": "mg"}, {"measurement": "Effect on Oedema Development", "setting": "[1]; 0.41 µMol, 18 hours after treatment", "value": "0.7 ± 0.1", "unit": "mg"}, {"measurement": "Effect on Oedema Development", "setting": "[1]; 0.41 µMol, 30 hours after treatment", "value": "0.7 ± 0.1", "unit": "mg"}, {"measurement": "antiinflammatory activity (oedema) in words", "setting": "[1]; 18 hours after treatment", "value": "maintain their effect to a certain extent"}, {"measurement": "Activity Ratio on Molar basis", "setting": "[1]", "value": 14.00}, {"measurement": "ID50", "setting": "[1]", "value": 3.3, "unit": "µg/ear"}, {"measurement": "ID50 (column head printed: Activity Ratio)", "setting": "[1]", "value": 0.009, "unit": "µmol/ear"}, {"measurement": "Effect on granulocyte infiltration (MPO activity)", "setting": "[2]; 0.41µMol, 6 hours after treatment", "value": "0.0±0.2", "unit": "unit"}, {"measurement": "Effect on granulocyte infiltration (MPO activity)", "setting": "[2]; 0.41µMol, 18 hours after treatment", "value": "6.9±2.1", "unit": "unit"}, {"measurement": "Effect on granulocyte infiltration (MPO activity)", "setting": "[2]; 0.41µMol, 30 hours after treatment", "value": "8.2±2.4", "unit": "unit"}]}
{"molecule": "COc1ccc2c(c1)c(CC(=O)O)c(C)n2C(=O)c1ccc(Cl)cc1", "note": "[Indomethacin]", "values": [{"measurement": "Effect on Oedema Development", "setting": "[1]; [5]", "value": "0.0 ± 0.1", "unit": "mg"}, {"measurement": "Effect on Oedema Development", "setting": "[1]; [6]", "value": "3.1 ± 0.4", "unit": "mg"}, {"measurement": "Effect on Oedema Development", "setting": "[1]; [7]", "value": "0.5 ± 0.1", "unit": "mg"}, {"measurement": "antiinflammatory activity (oedema) in words", "setting": "[1]; 18 hours after treatment", "value": "lose their antiinflammatory activity"}, {"measurement": "Activity Ratio on Molar basis", "setting": "[1]", "value": 1.00}, {"measurement": "ID50", "setting": "[1]", "value": 46.1, "unit": "µg/ear"}, {"measurement": "ID50 (column head printed: Activity Ratio)", "setting": "[1]", "value": 0.126, "unit": "µmol/ear"}, {"measurement": "Effect on granulocyte infiltration (MPO activity)", "setting": "[2]; [5]", "value": "0.0±0.1", "unit": "unit"}, {"measurement": "Effect on granulocyte infiltration (MPO activity)", "setting": "[2]; [6]", "value": "10.0±1.6", "unit": "unit"}, {"measurement": "Effect on granulocyte infiltration (MPO activity)", "setting": "[2]; [7]", "value": "6.8±3.4", "unit": "unit"}, {"measurement": "inhibition of oedema", "setting": "[3]; 1mg/kg, i.p.", "value": 74, "unit": "%"}, {"measurement": "Oedema + SEM (%)", "setting": "[3]; 0.5 mg/Kg, +30 min", "value": "13.6±4.0", "unit": "%"}, {"measurement": "Oedema + SEM (%)", "setting": "[3]; 0.5 mg/Kg, +60 min", "value": "18.9±4.0", "unit": "%"}, {"measurement": "Oedema + SEM (%)", "setting": "[3]; 0.5 mg/Kg, +120 min", "value": "28.8±4.2", "unit": "%"}, {"measurement": "Oedema + SEM (%)", "setting": "[3]; 1.0 mg/Kg, +30 min", "value": "9.3±2.3", "unit": "%"}, {"measurement": "Oedema + SEM (%)", "setting": "[3]; 1.0 mg/Kg, +60 min", "value": "12.3±2.2", "unit": "%"}, {"measurement": "Oedema + SEM (%)", "setting": "[3]; 1.0 mg/Kg, +120 min", "value": "16.4±1.6", "unit": "%"}, {"measurement": "Oedema + SEM (%)", "setting": "[3]; 2.0 mg/Kg, +30 min", "value": "8.2±1.5", "unit": "%"}, {"measurement": "Oedema + SEM (%)", "setting": "[3]; 2.0 mg/Kg, +60 min", "value": "12.8±1.8", "unit": "%"}, {"measurement": "inhibition of Carrageenan-induced Mice Paw Oedema", "setting": "[4]; Dose 1.00 %, +60 m", "value": "18.2** %"}, {"measurement": "inhibition of Carrageenan-induced Mice Paw Oedema", "setting": "[4]; Dose 1.00 %, +120 m", "value": "24.0** %"}, {"measurement": "inhibition of Carrageenan-induced Mice Paw Oedema", "setting": "[4]; Dose 1.00 %, +180 m", "value": "29.0** %"}, {"measurement": "inhibition of Carrageenan-induced Mice Paw Oedema", "setting": "[4]; Dose 1.00 %, +240 m", "value": "21.2** %"}, {"measurement": "inhibition of Carrageenan-induced Mice Paw Oedema", "setting": "[4]; Dose 1.00 %, +360 m", "value": "9.6** %"}, {"measurement": "inhibition of Carrageenan-induced Mice Paw Oedema", "setting": "[4]; Dose 1.00 %, +480 m", "value": 4.6, "unit": "%"}, {"measurement": "inhibition of Carrageenan-induced Mice Paw Oedema", "setting": "[4]; Dose 2.00 %, +60 m", "value": "24.2* %"}, {"measurement": "inhibition of Carrageenan-induced Mice Paw Oedema", "setting": "[4]; Dose 2.00 %, +120 m", "value": "26.0* %"}, {"measurement": "inhibition of Carrageenan-induced Mice Paw Oedema", "setting": "[4]; Dose 2.00 %, +180 m", "value": "41.9*** %"}, {"measurement": "inhibition of Carrageenan-induced Mice Paw Oedema", "setting": "[4]; Dose 2.00 %, +180 m, listed as indomethacin", "value": 41.9, "unit": "%"}, {"measurement": "inhibition of Carrageenan-induced Mice Paw Oedema", "setting": "[4]; Dose 2.00 %, +240 m", "value": "36.4* %"}, {"measurement": "inhibition of Carrageenan-induced Mice Paw Oedema", "setting": "[4]; Dose 2.00 %, +360 m", "value": "11.5* %"}, {"measurement": "inhibition of Carrageenan-induced Mice Paw Oedema", "setting": "[4]; Dose 2.00 %, +480 m", "value": 10.6, "unit": "%"}]}
{"molecule": "O=c1c(O)c(-c2ccc(O)c(O)c2)oc2cc(O)cc(O)c12", "note": "[Quercetin]", "values": [{"measurement": "Activity Ratio on Molar basis", "setting": "[1]", "value": 0.65}, {"measurement": "ID50", "setting": "[1]", "value": 60.3, "unit": "µg/ear"}, {"measurement": "ID50 (column head printed: Activity Ratio)", "setting": "[1]", "value": 0.200, "unit": "µmol/ear"}]}
{"molecule": "C[C@@H]1O[C@@H](OC[C@H]2O[C@@H](Oc3c(-c4ccc(O)c(O)c4)oc4cc(O)cc(O)c4c3=O)[C@H](O)[C@@H](O)[C@@H]2O)[C@H](O)[C@H](O)[C@H]1O", "note": "[Rutin]", "values": [{"measurement": "Activity Ratio on Molar basis", "setting": "[1]", "value": 0.28}, {"measurement": "ID50", "setting": "[1]", "value": 282, "unit": "µg/ear"}, {"measurement": "ID50 (column head printed: Activity Ratio)", "setting": "[1]", "value": 0.462, "unit": "µmol/ear"}]}
